Test results from US20110105748A1, “Novel beta-phenyl-alpha-oxysubstituted propionic derivatives: process for its preparation and their use in the preparation of pharmaceutically important compounds” (priority 2001, published 2011).

melting point: 74 to 76 °C
Structure (SMILES): CCOC(=O)[C@H](Cc1ccc(N)cc1)OCC [Example 6, (S)-Ethyl 2-ethoxy-3-(4-aminophenyl)propionate]
